From the Deep4Chem optical property database come the findings set out here.

The nature of this data set: solvent given as SMILES.

For `CC(C)(C)c1ccc(-c2c3ccccc3c3n2[B-](F)(F)[N+]2=Cc4c5ccccc5c(-c5ccc(C(C)(C)C)cc5)n4[B-](F)(F)[N+]2=C3)cc1`, the emission maximum is listed as 601 nm (in CC#N); 603 nm (in CCCCCC); 607 nm (in CN(C)C=O); 611 nm (in Cc1ccccc1); 608 nm (in ClCCl).

As for `Cc1ccc(CN2/C(=C/C=C3\CCCC(/C=C/C4=[N+](Cc5ccc(C)cc5)c5ccccc5C4(C)C)=C3Cl)C(C)(C)c3ccccc32)cc1`, the emission maximum (in CO) is given as 813 nm.

The compound `CC1(C)c2ccccc2-c2cc3c(cc21)c1ccccc1n3-c1ccccc1` yielded an emission maximum (in ClCCl) of 391 nm.

`CC(C)(C)NC(=O)c1cc2ccc3cccc4ccc(c1C(=O)NC(C)(C)C)c2c34`: the emission maximum (in ClC(Cl)Cl) was found to be 392 nm.

Compound `O=[N+]([O-])c1ccc(C#Cc2ccc3ccccc3c2)cc1` gave an emission maximum (in ClC(Cl)Cl) of 536 nm and an emission maximum (in ClCCl) of 546 nm.

As to `C(#Cc1c(C#Cc2ccccc2)c(C#Cc2ccccc2)c(C#Cc2ccccc2)c(C#Cc2ccccc2)c1C#Cc1ccccc1)c1ccccc1`, the emission maximum (in ClCCl) stood at 452 nm.

In turn, `CCCCCCN1C(=O)c2cccc3c(-c4ccc(-c5cc(-c6ccc(OC)cc6)n(-c6ccccc6)n5)s4)ccc(c23)C1=O` displayed an emission maximum (in ClCCl) of 521 nm.

The compound `CN(C)c1ccc(C(=Cc2ccc(/C=C/c3ccc(C#N)cc3)cc2)c2ccc(N(C)C)cc2)cc1` gave an emission maximum (in C1CCOC1) of 481 nm.

For `Cc1ccc(C2CC(=O)Oc3c2c2nc4ccccc4nc2c2ccccc32)cc1` (stereo unspecified), under “in ClC(Cl)Cl”, the emission maximum was determined as 440 nm.

With `CN(C)c1ccc(C2=Cc3ccc4ccccc4[n+]3[B-](F)(F)O2)cc1`, the emission maximum is, setting by setting: (in C1CCOC1) 540 nm; (in C1COCCO1) 516 nm; (in CC1CCCCC1) 478 nm; (in CC#N) 573 nm; (in CCOC(C)=O) 534 nm; (in CCOCC) 509 nm. Moreover, the emission maximum was determined as 581 nm (in CN(C)C=O), 564 nm (in CO), 562 nm (in COC(C)=O) and 521 nm (in ClC(Cl)Cl).

As for `CCCCCCC(CCCCCC)n1c(=O)c2c3ccc4cccc5c6cccc7ccc(c2c1=O)c(c76)c3c45`, the emission maximum reads like this: (in C1CCCCC1) 471 nm; (in CC#N) 527 nm; (in CC(C)=O) 514 nm; (in CCCCCC) 469 nm; (in CCO) 550 nm; (in CCOCC) 495 nm. The emission maximum is 534 nm (in CS(C)=O), 491 nm (in Cc1ccccc1), 482 nm (in ClC(Cl)(Cl)Cl) and 522 nm (in ClC(Cl)Cl).

For `Cc1cccc2c1nc1c(=O)n(C)c(=O)nc-1n2C`, for the setting “in CC#N”, the emission maximum is on record as 493 nm.

On to `CCCCN(CCCC)c1ccc(C#Cc2cc(C#Cc3c(F)c(F)c(F)c(F)c3F)c(C#Cc3ccc(N(CCCC)CCCC)cc3)cc2C#Cc2c(F)c(F)c(F)c(F)c2F)cc1`, for which the emission maximum came to 563 nm (in ClCCl) and 534 nm (in c1ccccc1).

The compound `c1ccc(-n2nc(-c3ccc(-c4ccc5c(c4)C(c4ccccc4)(c4ccccc4)c4ccccc4-5)cc3)nc2-c2ccccn2)cc1` registered an emission maximum (in ClCCl) of 358 nm.

Take `Cc1ccc(-c2c3nc(c(-c4ccc(C)cc4)c4ccc([nH]4)c(-c4ccc(OC(=O)C(C)c5ccc(CC(C)C)cc5)cc4)c4nc(c(-c5ccc(C)cc5)c5ccc2[nH]5)C=C4)C=C3)cc1` (stereo unspecified): the emission maximum (in ClCCl) is reported as 652 nm.

With `COc1cc2c(cc1-c1ccc(N(C)C)cc1)Cc1c3c(c4c(c1-2)-c1cc(OC)c(-c2ccc(N(C)C)cc2)cc1C4)C(=O)N(CCC(C)C)C3=O`, the emission maximum (in C1CCOC1) is reported as 593 nm.

As for `CN(C)c1ccc(C2=Cc3c4ccccc4c4ccccc4[n+]3[B-](F)(F)O2)cc1`, the emission maximum (in C1CCOC1) is listed as 539 nm; the emission maximum (in C1COCCO1) is reported as 518 nm; the emission maximum (in CC1CCCCC1) is given as 485 nm; the emission maximum (in CC#N) is recorded as 569 nm; the emission maximum (in CCOC(C)=O) is on record as 536 nm; the emission maximum (in CCOCC) is given as 513 nm. Also, the emission maximum is, setting by setting: (in CN(C)C=O) 571 nm; (in CO) 559 nm; (in COC(C)=O) 559 nm; (in ClC(Cl)Cl) 521 nm.

Turning to `COc1ccc(-n2nc(C#N)c(N3CCCCC3)n2)cc1`, the emission maximum (in CC#N) was 415 nm.

In the case of `Cc1nc2c(ccc3ccc(O)cc32)oc1=O`, the emission maximum (in c1ccccc1) is 461 nm.

As to `Cc1nc2ccc(/C=C/c3ccc(N(C)C)cc3)cc2nc1-c1ccccc1`, the emission maximum worked out at 526 nm (in C1COCCO1), 641 nm (in CC#N) and 590 nm (in ClCCl).

As to `CCCCCCCCC1(CCCCCCCC)c2cc(C#CC#Cc3ccc(N(c4ccccc4)c4ccccc4)cc3)ccc2-c2ccc(C=O)cc21`, the emission maximum worked out at 498 nm (in C1CCOC1); 448 nm (in C1COCCO1); 525 nm (in CC#N); 541 nm (in CC(C)=O); 422 nm (in CCCCCC); 500 nm (in CCOC(C)=O). The emission maximum (in CN(C)C=O) is listed as 523 nm; the emission maximum (in CS(C)=O) is recorded as 540 nm; the emission maximum (in Cc1ccccc1) amounted to 442 nm; the emission maximum (in ClC(Cl)Cl) turned out to be 500 nm; the emission maximum (in ClCCl) is listed as 520 nm.

As for `COC(=O)C1=C(C(=O)OC)C2(c3ccccc3-c3ccc([N+](=O)[O-])cc32)C2(/C=C/c3ccccc3)c3cc(OC)c(OC)cc3CCN12` (stereo unspecified), for the setting “in ClCCl”, the emission maximum is reported as 510 nm.

Compound `CC(C)CCCCN1CCc2c1ccc1c3c(ccc21)CCCC3=O` returned an emission maximum (in C1CCCCC1) of 507 nm; an emission maximum (in CC#N) of 625 nm; an emission maximum (in CC(C)O) of 637 nm; an emission maximum (in CCC(C)=O) of 612 nm; an emission maximum (in CCO) of 539 nm; an emission maximum (in CCOC(C)=O) of 586 nm. The compound further yielded an emission maximum (in CS(C)=O) of 643 nm, an emission maximum (in Cc1ccccc1) of 554 nm, an emission maximum (in ClCCl) of 595 nm and an emission maximum (in Clc1ccccc1) of 573 nm.

`CCN(CC)c1ccc2c(c1)oc(=O)c1c(C)nc3c(c(-c4ccccc4)nn3-c3ccccc3)c12`: the emission maximum (in ClCCl) is reported as 461 nm.

As to `COc1ccc(C2=Cc3ccccc3[Si]2(c2ccccc2)c2ccccc2)cc1`, the emission maximum (in ClCCl) was found to be 418 nm.

Compound `O=c1cc2c(Br)c(O)c3cccc4ccc(o1)c2c43` gave an emission maximum (in CC1CCCO1) of 484 nm.

In turn, `CC(C)(C)c1cc(-c2ccc(-c3cccs3)s2)c2c(c1)c1cc(C(C)(C)C)cc(-c3ccc(-c4cccs4)s3)c1n2-c1ccc(-c2cccs2)s1` showed an emission maximum (in ClCCl) of 434 nm.

Consider `F[B-]1(F)n2cccc2C=C2c3ccccc3C(c3ccc[nH]3)=[N+]21`, for which the emission maximum runs as follows: (in C1CCOC1) 596 nm; (in CC#N) 594 nm; (in CCCCCC) 588 nm; (in CO) 592 nm; (in Cc1ccccc1) 600 nm; (in ClCCl) 599 nm.

Take `c1ccc2nc(-n3c4ccccc4c4ccccc43)c(-n3c4ccccc4c4ccccc43)nc2c1`: the emission maximum is, setting by setting: (in C1CCOC1) 516.79 nm; (in CCCCCC) 467.18 nm; (in Cc1ccccc1) 503 nm.

In turn, `CCCCCCN1C(=O)c2cccc3cc(/N=C\c4ccc(N5CCOCC5)cc4)cc(c23)C1=O` registered an emission maximum (in ClC(Cl)Cl) of 557 nm.

Turning to `COc1ccc2cc(C(C)C(=O)Oc3ccc(-c4c5nc(c(-c6ccc(C)cc6)c6ccc([nH]6)c(-c6ccc(C)cc6)c6nc(c(-c7ccc(C)cc7)c7ccc4[nH]7)C=C6)C=C5)cc3)ccc2c1` (stereo unspecified), the emission maximum (in ClCCl) turned out to be 654 nm.

`COc1ccccc1-c1nc(-c2ccccc2)c(-c2ccccc2)[nH]1` registered an emission maximum (in CO) of 375 nm.

Consider `CC1=CC(C)=[N+]2C1=Cc1c3ccccc3c(C#Cc3cccs3)n1[B-]2(F)F`, for which the emission maximum by setting is: (in CCCCCC) 628 nm; (in CCCCCCCCO) 636 nm; (in CCOC(C)=O) 632 nm; (in CN(C)C=O) 639 nm; (in ClCCl) 631 nm.

On to `COc1ccc(C2=C3C(/C=C/c4cc(OC)c(OC)c(OC)c4)=C(C=O)C(C)=[N+]3[B-](F)(F)n3c(C)c(C=O)c(C=Cc4cc(OC)c(OC)c(OC)c4)c32)cc1`, for which the emission maximum (in ClCCl) was 673 nm.

The compound `N#C/C(=C\c1ccc(Cl)cc1)c1nc(-c2ccccc2)c(-c2ccccc2)s1` gave an emission maximum (in CC#N) of 501 nm.

Where the note is “in Cc1ccccc1”, `c1ccc(-c2nc(-c3ccc(-n4c5ccc(-n6c7ccccc7c7ccccc76)cc5c5ccc6c(c7ccccc7n6-c6ccccc6)c54)cc3)c3sc4ccccc4c3n2)cc1` had an emission maximum of 460.56 nm.

On to `CC(C)(C)c1ccc2c(c1)c1cc(C(C)(C)C)ccc1n2-c1ccc(N(c2ccc(-c3ccc(-c4ccc(-c5ccc(-c6ccc(N(c7ccc(-n8c9ccc(C(C)(C)C)cc9c9cc(C(C)(C)C)ccc98)cc7)c7ccc(-n8c9ccc(C(C)(C)C)cc9c9cc(C(C)(C)C)ccc98)cc7)cc6)s5)c5nsnc45)s3)cc2)c2ccc(-n3c4ccc(C(C)(C)C)cc4c4cc(C(C)(C)C)ccc43)cc2)cc1`, for which, for the setting “in ClCCl”, the emission maximum is given as 640 nm.

The compound `N#Cc1ccc(-n2c(-c3ccc(-c4ccc(-c5nc6c7ccccc7c7ccccc7c6n5-c5ccc(C#N)c6ccccc56)cc4)cc3)nc3c4ccccc4c4ccccc4c32)c2ccccc12` yielded an emission maximum (in ClCCl) of 430 nm.

`CC(C)(C)c1cc(-c2c3cccc4c5cccc6c(-c7cc(C(C)(C)C)cc(C(C)(C)C)c7)c7cccc8c9cccc2c9c(c34)c(c65)c78)cc(C(C)(C)C)c1` registered an emission maximum (in Cc1ccccc1) of 701 nm.

For `CC1=N/C(=C\c2cc(C#N)cc(N(C)C)c2)C(=O)N1C`, the emission maximum is 544 nm (in C1CCOC1), 595 nm (in CC#N) and 475 nm (in CCCCCC).

With `C[Si](C)(C)[Si](C)(C)c1ccc2cc3ccccc3cc2c1`, the emission maximum reads like this: (in C1CCCCC1) 411 nm; (in CC#N) 412 nm.

Where the note is “in ClCCl”, `O=c1oc2ccccc2c2c1c(=O)oc1cc(O)ccc12` had an emission maximum of 455 nm.

`COc1ccc(C2=N/C(=C\c3ccc(C#N)cc3)C(=O)O2)cc1OC`: for the setting “in C1COCCO1”, the emission maximum amounted to 489 nm.
